Experimental data reported in ChEMBL document CHEMBL1909046, “DrugMatrix in vitro pharmacology data”.

Key:
[1] = target: Tyrosine-protein kinase Fyn (Homo sapiens, UniProt P06241); test: biochemical; type: cell-based, Insect cells; conditions: insect cells;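 further: enzymatic inhibition of Fyn kinase activity measured with Poly(Glu:Tyr) as the phosphorylation substrate; in other assays of this panel Not Active means under 50% inhibition at 10 µM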
Carbonic anhydrase 2 = Carbonic anhydrase 2 (Homo sapiens, UniProt P00918); test: DRUGMATRIX: Carbonic Anhydrase II enzyme inhibition (substrate: 4-Nitrophenyl acetate (4-NPA)); type: tissue-based, Erythrocyte; conditions: erythrocyte; Not Active = under 50% inhibition at 10 µM
[2] = DRUGMATRIX: Sigma2 radioligand binding (ligand: [3H] Ifenprodil); type: cell membranes, Rattus norvegicus, Wistar, Brain, Membrane; conditions: Not Active = under 50% inhibition at 10 µM
[3] = DRUGMATRIX: GABAA, Muscimol, Central radioligand binding (ligand: [3H] Muscimol); type: cell membranes, Rattus norvegicus, Wistar, Brain, Membrane; conditions: Not Active = under 50% inhibition at 10 µM
Substance-K receptor = target: T1, Substance-K receptor (Homo sapiens, UniProt P21452); type: cell membranes, CHO, Membrane; conditions: cho; further: in other assays of this panel Not Active means under 50% inhibition at 10 µM
T1 sequence (P21452 whole entry): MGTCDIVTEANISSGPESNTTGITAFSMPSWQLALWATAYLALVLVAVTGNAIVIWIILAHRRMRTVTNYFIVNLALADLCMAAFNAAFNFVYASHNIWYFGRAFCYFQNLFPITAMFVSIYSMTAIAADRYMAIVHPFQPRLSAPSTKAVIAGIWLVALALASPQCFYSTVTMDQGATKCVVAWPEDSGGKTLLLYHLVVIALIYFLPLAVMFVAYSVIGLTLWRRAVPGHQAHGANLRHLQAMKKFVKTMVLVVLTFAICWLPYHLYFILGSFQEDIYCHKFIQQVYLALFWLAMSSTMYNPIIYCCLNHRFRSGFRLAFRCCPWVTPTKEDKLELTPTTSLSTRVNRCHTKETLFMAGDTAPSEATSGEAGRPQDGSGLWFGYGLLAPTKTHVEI

[4] = target: T2, Alpha-1D adrenergic receptor (Homo sapiens, UniProt P25100); type: cell membranes, HEK293, Membrane; conditions: hek293; further: in other assays of this panel Not Active means under 50% inhibition at 10 µM
T2 sequence (P25100 whole entry): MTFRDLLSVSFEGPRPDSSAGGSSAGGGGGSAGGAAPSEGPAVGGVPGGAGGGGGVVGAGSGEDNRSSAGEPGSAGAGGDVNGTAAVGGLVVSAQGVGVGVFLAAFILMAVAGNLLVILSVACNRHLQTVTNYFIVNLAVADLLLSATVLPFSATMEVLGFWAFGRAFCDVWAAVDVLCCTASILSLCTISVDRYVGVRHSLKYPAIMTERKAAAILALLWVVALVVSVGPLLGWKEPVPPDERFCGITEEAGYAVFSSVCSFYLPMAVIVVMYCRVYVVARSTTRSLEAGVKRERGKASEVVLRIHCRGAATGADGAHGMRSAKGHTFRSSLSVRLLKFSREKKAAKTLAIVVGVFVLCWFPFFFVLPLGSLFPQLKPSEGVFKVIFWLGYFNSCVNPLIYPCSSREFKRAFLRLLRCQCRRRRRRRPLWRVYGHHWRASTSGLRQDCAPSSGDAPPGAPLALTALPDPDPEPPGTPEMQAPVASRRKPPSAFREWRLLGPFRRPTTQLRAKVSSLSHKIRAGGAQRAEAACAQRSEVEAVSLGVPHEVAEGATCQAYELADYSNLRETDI

Adenosine receptor A3 = target: T3, Adenosine receptor A3 (Homo sapiens, UniProt P0DMS8); type: cell membranes, CHO-K1, Membrane; conditions: cho-k1;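 further: radioligand binding assay with AB-MECA serving as the labeled ligand; in other assays of this panel Not Active means under 50% inhibition at 10 µM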
T3 sequence (P0DMS8 whole entry): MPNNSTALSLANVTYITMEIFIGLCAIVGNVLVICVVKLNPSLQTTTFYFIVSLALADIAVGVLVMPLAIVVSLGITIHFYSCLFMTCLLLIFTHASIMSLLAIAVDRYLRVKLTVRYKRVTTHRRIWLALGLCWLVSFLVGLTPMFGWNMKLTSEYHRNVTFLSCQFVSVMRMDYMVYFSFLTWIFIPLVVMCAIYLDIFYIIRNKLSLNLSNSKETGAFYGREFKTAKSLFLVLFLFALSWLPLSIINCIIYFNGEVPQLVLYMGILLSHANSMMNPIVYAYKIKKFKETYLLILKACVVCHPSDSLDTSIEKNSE

Cannabinoid receptor 1 = Cannabinoid receptor 1 (Homo sapiens, UniProt P21554); type: cell membranes, Membrane; conditions: chem-1; further: in other assays of this panel Not Active means under 50% inhibition at 10 µM
Sequence of Cannabinoid receptor 1 (P21554 whole entry): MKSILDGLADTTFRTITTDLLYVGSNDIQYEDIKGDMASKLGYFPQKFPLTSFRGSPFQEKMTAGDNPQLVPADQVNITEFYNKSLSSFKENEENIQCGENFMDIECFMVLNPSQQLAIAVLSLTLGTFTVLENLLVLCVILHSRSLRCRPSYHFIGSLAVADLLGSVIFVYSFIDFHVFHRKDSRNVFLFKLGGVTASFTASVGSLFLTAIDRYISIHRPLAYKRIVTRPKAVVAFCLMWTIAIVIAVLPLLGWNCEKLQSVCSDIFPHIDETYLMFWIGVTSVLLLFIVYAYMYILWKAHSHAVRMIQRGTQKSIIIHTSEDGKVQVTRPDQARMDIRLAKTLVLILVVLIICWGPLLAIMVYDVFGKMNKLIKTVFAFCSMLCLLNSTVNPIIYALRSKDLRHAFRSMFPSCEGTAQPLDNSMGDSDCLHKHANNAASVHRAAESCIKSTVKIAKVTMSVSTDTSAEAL

Cytochrome P450 2C9 = Cytochrome P450 2C9 (Homo sapiens, UniProt P11712); conditions: bti-tn-5b1-4; further: in other assays of this panel Not Active means under 50% inhibition at 10 µM
Sequence of Cytochrome P450 2C9 (P11712 whole entry): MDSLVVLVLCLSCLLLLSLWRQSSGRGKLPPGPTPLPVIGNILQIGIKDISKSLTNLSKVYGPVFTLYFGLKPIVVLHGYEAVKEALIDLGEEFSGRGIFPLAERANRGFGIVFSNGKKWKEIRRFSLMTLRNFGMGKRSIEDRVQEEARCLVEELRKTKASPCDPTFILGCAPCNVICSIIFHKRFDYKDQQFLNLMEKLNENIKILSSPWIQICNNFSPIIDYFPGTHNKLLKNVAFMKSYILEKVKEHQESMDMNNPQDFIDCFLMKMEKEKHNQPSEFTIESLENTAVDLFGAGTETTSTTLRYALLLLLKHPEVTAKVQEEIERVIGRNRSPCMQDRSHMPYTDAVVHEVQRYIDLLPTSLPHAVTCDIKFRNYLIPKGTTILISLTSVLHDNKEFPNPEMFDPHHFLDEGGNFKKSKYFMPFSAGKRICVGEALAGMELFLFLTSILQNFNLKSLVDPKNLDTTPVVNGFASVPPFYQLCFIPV

Cytochrome P450 2A6 = target: T4, Cytochrome P450 2A6 (Homo sapiens, UniProt P11509); conditions: bti-tn-5b1-4; further: in other assays of this panel Not Active means under 50% inhibition at 10 µM
T4 sequence (P11509 whole entry): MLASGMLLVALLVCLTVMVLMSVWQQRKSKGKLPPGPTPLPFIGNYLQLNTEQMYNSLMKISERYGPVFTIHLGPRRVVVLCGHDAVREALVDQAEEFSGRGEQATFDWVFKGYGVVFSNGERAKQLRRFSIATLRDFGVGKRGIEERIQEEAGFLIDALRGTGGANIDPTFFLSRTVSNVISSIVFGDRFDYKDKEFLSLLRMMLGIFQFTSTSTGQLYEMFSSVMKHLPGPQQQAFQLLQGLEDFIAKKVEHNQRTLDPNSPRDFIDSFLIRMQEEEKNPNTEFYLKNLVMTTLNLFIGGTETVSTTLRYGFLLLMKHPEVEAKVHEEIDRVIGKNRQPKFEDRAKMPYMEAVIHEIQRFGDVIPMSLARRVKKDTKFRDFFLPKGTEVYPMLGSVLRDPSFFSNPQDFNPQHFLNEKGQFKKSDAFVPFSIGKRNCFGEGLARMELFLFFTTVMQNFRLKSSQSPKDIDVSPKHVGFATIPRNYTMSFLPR

[5] = target: Mitogen-activated protein kinase 14 (Homo sapiens, UniProt Q16539); set-up: species or system Escherichia coli
Sequence of Mitogen-activated protein kinase 14 (Q16539 whole entry): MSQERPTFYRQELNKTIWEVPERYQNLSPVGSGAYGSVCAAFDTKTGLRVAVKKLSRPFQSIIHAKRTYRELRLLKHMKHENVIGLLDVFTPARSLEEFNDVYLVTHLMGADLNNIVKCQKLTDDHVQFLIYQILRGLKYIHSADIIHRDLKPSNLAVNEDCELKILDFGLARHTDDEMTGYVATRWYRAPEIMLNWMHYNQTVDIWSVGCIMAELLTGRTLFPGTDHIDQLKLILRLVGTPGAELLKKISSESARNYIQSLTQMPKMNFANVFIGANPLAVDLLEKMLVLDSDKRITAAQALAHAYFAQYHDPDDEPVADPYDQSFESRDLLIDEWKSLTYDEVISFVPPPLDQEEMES

Acetylcholinesterase = Acetylcholinesterase (Homo sapiens, UniProt P22303); test: DRUGMATRIX: Acetylcholinesterase enzyme inhibition (substrate: acetylthiocholine); type: cell-based, HEK293; conditions: hek293; Not Active = under 50% inhibition at 10 µM
Sequence of Acetylcholinesterase (P22303 whole entry): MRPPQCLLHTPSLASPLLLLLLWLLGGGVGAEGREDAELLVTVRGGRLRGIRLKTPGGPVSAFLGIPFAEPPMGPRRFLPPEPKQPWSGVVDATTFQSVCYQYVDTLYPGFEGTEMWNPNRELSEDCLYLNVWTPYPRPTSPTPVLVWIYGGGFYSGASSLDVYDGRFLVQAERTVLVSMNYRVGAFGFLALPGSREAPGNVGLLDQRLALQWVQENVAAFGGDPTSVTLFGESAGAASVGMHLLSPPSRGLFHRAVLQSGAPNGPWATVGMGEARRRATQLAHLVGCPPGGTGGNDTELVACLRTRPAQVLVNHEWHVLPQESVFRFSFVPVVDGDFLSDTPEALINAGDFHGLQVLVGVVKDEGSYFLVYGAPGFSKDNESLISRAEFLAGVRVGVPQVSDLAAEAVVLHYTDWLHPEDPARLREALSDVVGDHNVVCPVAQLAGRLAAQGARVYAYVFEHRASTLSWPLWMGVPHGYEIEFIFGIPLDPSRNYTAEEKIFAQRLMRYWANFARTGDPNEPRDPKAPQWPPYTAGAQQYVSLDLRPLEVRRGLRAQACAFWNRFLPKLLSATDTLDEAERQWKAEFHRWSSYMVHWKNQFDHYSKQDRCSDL

Leukotriene C4 synthase = target: T5, Leukotriene C4 synthase (Cavia porcellus, UniProt A6XA80); test: biochemical; type: tissue-based, Lung
T5 sequence (A6XA80 whole entry): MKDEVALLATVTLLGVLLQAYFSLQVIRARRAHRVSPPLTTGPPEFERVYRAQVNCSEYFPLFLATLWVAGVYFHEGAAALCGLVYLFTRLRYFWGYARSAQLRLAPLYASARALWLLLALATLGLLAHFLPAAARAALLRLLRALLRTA

Sequence of Tyrosine-protein kinase Fyn (P06241 whole entry): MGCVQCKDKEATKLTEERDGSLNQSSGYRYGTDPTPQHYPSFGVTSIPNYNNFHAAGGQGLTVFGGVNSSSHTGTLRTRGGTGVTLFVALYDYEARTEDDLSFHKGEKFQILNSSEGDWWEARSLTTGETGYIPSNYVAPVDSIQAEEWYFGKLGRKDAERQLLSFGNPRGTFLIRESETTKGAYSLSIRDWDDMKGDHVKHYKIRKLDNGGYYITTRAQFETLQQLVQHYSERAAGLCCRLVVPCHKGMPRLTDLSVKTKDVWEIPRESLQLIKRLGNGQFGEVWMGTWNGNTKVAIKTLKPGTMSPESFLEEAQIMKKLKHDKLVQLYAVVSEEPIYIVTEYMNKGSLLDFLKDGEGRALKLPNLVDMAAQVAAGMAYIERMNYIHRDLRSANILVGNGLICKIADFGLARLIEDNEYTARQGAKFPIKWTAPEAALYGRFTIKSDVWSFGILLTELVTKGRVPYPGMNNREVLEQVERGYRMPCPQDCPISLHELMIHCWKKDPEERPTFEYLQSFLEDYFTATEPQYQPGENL

OXALIPLATIN
Not Active: IC50 [1] | Ki [1] | IC50 (Carbonic anhydrase 2) | Ki (Carbonic anhydrase 2) | IC50 [2] | Ki [2] | IC50 [3] | Ki [3] | IC50 (Substance-K receptor) | Ki (Substance-K receptor) | IC50 [4] | Ki [4] | IC50 (Adenosine receptor A3) | Ki (Adenosine receptor A3) | IC50 (Cannabinoid receptor 1) | Ki (Cannabinoid receptor 1) | IC50 (Cytochrome P450 2C9) | Ki (Cytochrome P450 2C9) | IC50 (Cytochrome P450 2A6) | Ki (Cytochrome P450 2A6) | IC50 [5] | Ki [5] | IC50 (Acetylcholinesterase) | Ki (Acetylcholinesterase) | IC50 (Leukotriene C4 synthase) | Ki (Leukotriene C4 synthase)
